Reference: US20130040944A1, “MGLUR4 ALLOSTERIC POTENTIATORS, COMPOSITIONS, AND METHODS OF TREATING NEUROLOGICAL DYSFUNCTION” (VANDERBILT UNIVERSITY, priority 2009, published 2013)

These molecules were tested against human mGluR4 (Homo sapiens, UniProt Q14833) (assay: potentiation of human mGluR4 in transfected CHO cells, Ca2+-sensitive dye fluorescence, EC20 agonist). Conditions: CHO, read-out: % Glu Max.
Chain of human mGluR4 (Q14833 33-912): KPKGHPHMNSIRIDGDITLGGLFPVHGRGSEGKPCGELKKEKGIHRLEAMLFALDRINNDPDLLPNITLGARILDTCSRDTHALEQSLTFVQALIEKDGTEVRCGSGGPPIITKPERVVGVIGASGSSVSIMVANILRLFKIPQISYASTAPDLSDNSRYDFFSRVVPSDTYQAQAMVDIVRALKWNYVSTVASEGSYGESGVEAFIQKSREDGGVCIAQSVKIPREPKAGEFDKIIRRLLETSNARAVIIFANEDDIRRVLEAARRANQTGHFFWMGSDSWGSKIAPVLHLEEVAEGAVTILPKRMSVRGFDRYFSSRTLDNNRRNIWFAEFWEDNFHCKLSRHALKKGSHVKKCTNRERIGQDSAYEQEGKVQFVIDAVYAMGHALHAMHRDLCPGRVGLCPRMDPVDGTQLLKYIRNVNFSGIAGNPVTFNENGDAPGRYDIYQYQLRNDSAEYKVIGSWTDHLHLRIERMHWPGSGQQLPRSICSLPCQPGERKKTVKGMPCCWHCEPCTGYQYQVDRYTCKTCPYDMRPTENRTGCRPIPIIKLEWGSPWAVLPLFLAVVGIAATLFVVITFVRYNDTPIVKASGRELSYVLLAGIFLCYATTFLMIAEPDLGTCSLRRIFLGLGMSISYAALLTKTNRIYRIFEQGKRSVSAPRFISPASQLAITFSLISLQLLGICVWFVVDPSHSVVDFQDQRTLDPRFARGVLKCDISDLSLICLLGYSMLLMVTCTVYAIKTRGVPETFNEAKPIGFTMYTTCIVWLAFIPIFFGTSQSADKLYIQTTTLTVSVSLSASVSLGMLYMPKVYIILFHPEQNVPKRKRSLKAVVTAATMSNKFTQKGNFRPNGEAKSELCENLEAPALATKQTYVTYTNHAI

Which Emax does the source give for N#Cc1cccc(CS(=O)(=O)n2ccc(NC(=O)c3ccccn3)c2)c1 [Example 26] here?
The Emax was 141%.

For O=C(Nc1ccn(S(=O)(=O)CCc2ccccc2)c1)c1ccccn1 [Example 40, N-(1-(phenethylsulfonyl)-1H-pyrrol-3-yl)picolinamide], which Emax is on record?
The Emax was 152%.

Which Emax does the source give for COc1cccc(C(=O)Nc2ccn(S(=O)(=O)Cc3ccccc3)c2)c1 [Example 3, N-(1-(benzylsulfonyl)-1H-pyrrol-3-yl)-3-methoxybenzamide] here?
The Emax was 39%.

O=C(Nc1ccn(S(=O)(=O)c2ccccc2F)c1)c1ccccn1 [Example 8] was tested. Which Emax did it give?
The Emax was 116%.

For O=C(Nc1ccn(S(=O)(=O)Cc2ccccc2)c1)c1cscn1 [Example 42, N-(1-(benzylsulfonyl)-1H-pyrrol-3-yl)thiazole-4-carboxamide], which Emax is on record?
Its Emax is 129%.

Same assay, conditions: EC50 (nM), potentiation of EC20 agonist response; Table I

With N#Cc1cccc(CS(=O)(=O)n2ccc(NC(=O)c3ccccn3)c2)c1 [Example 26] as the molecule, how does the EC50 read?
Its EC50 is 5080 nM.

With O=C(Nc1ccn(S(=O)(=O)CCc2ccccc2)c1)c1ccccn1 [Example 40, N-(1-(phenethylsulfonyl)-1H-pyrrol-3-yl)picolinamide] as the molecule, how does the EC50 read?
The EC50 was 483 nM.

With COc1cccc(C(=O)Nc2ccn(S(=O)(=O)Cc3ccccc3)c2)c1 [Example 3, N-(1-(benzylsulfonyl)-1H-pyrrol-3-yl)-3-methoxybenzamide] as the molecule, how does the EC50 read?
Its EC50 is over 20000 nM.

Which EC50 does the source give for O=C(Nc1ccn(S(=O)(=O)c2ccccc2F)c1)c1ccccn1 [Example 8] here?
Its EC50 is 174 nM.

For O=C(Nc1ccn(S(=O)(=O)Cc2ccccc2)c1)c1cscn1 [Example 42, N-(1-(benzylsulfonyl)-1H-pyrrol-3-yl)thiazole-4-carboxamide], which EC50 is on record?
Its EC50 is 4620 nM.

Same assay, conditions: hEC50, human mGluR4 potentiation; unit inferred

Which EC50 does the source give for COC(=O)c1ccc(S(=O)(=O)n2ccc(NC(=O)c3ccccn3)c2)cc1 [Example 153, Methyl 4-((3-(picolinamido)-1H-pyrrol-1-yl)sulfonyl)benzoate] here?
Its EC50 is 285 nM.

For O=C(Nc1ccn(S(=O)(=O)c2cccs2)c1)c1ccccn1 [Example 134, N-(1-(thiophen-2-ylsulfonyl)-1H-pyrrol-3-yl)picolinamide], which EC50 is on record?
Its EC50 is 80 nM.

With O=C(Nc1ccn(S(=O)(=O)c2cc(F)c(F)cc2Cl)c1)c1ccccn1 [Example 107, N-(1-((2-chloro-4,5-difluorophenyl)sulfonyl)-1H-pyrrol-3-yl)picolinamide] as the molecule, how does the EC50 read?
Its EC50 is 158 nM.

How did the EC50 turn out when Cc1ccc(S(=O)(=O)n2cc(NC(=O)c3ccccn3)cc2C)cc1 [Example 151, N-(5-methyl-1-tosyl-1H-pyrrol-3-yl)picolinamide] was run?
The EC50 was 3810 nM.

O=C(Nc1ccn(S(=O)(=O)c2ccc3c(c2)OCO3)c1)c1ccco1 [Example 166, N-(1-(benzo[d][1,3]dioxol-5-ylsulfonyl)-1H-pyrrol-3-yl)furan-2-carboxamide] was tested. Which EC50 did it give?
Its EC50 is 1940 nM.

O=C(Nc1ccn(S(=O)(=O)c2ccsc2)c1)c1ccccn1 [Example 132, N-(1-(thiophen-3-ylsulfonyl)-1H-pyrrol-3-yl)picolinamide] was tested. Which EC50 did it give?
The EC50 was 413 nM.

Which EC50 does the source give for Cc1ccc(S(=O)(=O)c2cc(NC(=O)c3ccccn3)cn2C)cc1 [Example 157, N-(1-methyl-5-tosyl-1H-pyrrol-3-yl)picolinamide] here?
The EC50 was 3680 nM.

O=C(Nc1ccn(S(=O)(=O)c2ccc(F)c(F)c2F)c1)c1ccccn1 [Example 139, N-(1-((2,3,4-trifluorophenyl)sulfonyl)-1H-pyrrol-3-yl)picolinamide] was tested. Which EC50 did it give?
The EC50 was 301 nM.

How did the EC50 turn out when COc1ccc(S(=O)(=O)n2ccc(NC(=O)c3ccccn3)c2)cc1Cl [Example 64, N-(1-((3-chloro-4-methoxyphenyl)sulfonyl)-1H-pyrrol-3-yl)picolinamide] was run?
Its EC50 is 664 nM.

Which EC50 does the source give for CC(c1ccccc1Cl)S(=O)(=O)n1ccc(NC(=O)c2ccccn2)c1 (stereo not shown) [Example 106, N-(1-((1-(2-chlorophenyl)ethyl)sulfonyl)-1H-pyrrol-3-yl)picolinamide] here?
The EC50 was 1050 nM.

How did the EC50 turn out when Cc1noc(C)c1S(=O)(=O)n1ccc(NC(=O)c2ccccn2)c1 [Example 141, N-(1-((3,5-dimethylisoxazol-4-yl)sulfonyl)-1H-pyrrol-3-yl)picolinamide] was run?
The EC50 was 8320 nM.

Which EC50 does the source give for O=C(Nc1ccn(S(=O)(=O)c2ccc3c(c2)OCO3)c1)c1ccccn1 [Example 133, N-(1-(benzo[d][1,3]dioxol-5-ylsulfonyl)-1H-pyrrol-3-yl)picolinamide] here?
Its EC50 is 110 nM.

Which EC50 does the source give for Cc1ccc(F)c(S(=O)(=O)n2ccc(NC(=O)c3ccccn3)c2)c1 [Example 89, N-(1-((2-fluoro-5-methylphenyl)sulfonyl)-1H-pyrrol-3-yl)picolinamide] here?
Its EC50 is 281 nM.

O=C(Nc1ccn(S(=O)(=O)c2cccc(Cl)c2F)c1)c1ccccn1 [Example 124, N-(1-((3-chloro-2-fluorophenyl)sulfonyl)-1H-pyrrol-3-yl)picolinamide] was tested. Which EC50 did it give?
The EC50 was 84 nM.

With Cc1ccc(S(=O)(=O)n2ccc(NC(=O)c3ccccn3)c2)cc1F [Example 75, N-(1-((3-fluoro-4-methylphenyl)sulfonyl)-1H-pyrrol-3-yl)picolinamide] as the molecule, how does the EC50 read?
Its EC50 is 104 nM.

For O=C(Nc1ccn(S(=O)(=O)c2cccc(Cl)c2F)c1)c1ccco1 [Example 162, N-(1-((3-chloro-2-fluorophenyl)sulfonyl)-1H-pyrrol-3-yl)furan-2-carboxamide], which EC50 is on record?
The EC50 was 2540 nM.

O=C(Nc1ccn(S(=O)(=O)c2ccc3occc3c2)c1)c1ccccn1 [Example 150, N-(1-(benzofuran-5-ylsulfonyl)-1H-pyrrol-3-yl)picolinamide] was tested. Which EC50 did it give?
Its EC50 is 84.3 nM.

How did the EC50 turn out when O=C(Nc1ccn(S(=O)(=O)Cc2c(Cl)cccc2Cl)c1)c1ccccn1 [Example 98, N-(1-((2,6-dichlorobenzyl)sulfonyl)-1H-pyrrol-3-yl)picolinamide] was run?
Its EC50 is 119 nM.

Cc1c(Cl)cccc1S(=O)(=O)n1ccc(NC(=O)c2ccccn2)c1 [Example 116, N-(1-((3-chloro-2-methylphenyl)sulfonyl)-1H-pyrrol-3-yl)picolinamide] was tested. Which EC50 did it give?
Its EC50 is 286 nM.

How did the EC50 turn out when Cc1cc(S(=O)(=O)n2ccc(NC(=O)c3ccccn3)c2)ccc1F [Example 77, N-(1-((4-fluoro-3-methylphenyl)sulfonyl)-1H-pyrrol-3-yl)picolinamide] was run?
The EC50 was 396 nM.

How did the EC50 turn out when O=C(Nc1ccn(S(=O)(=O)Cc2ccccc2Cl)c1)c1ccc(Cl)cn1 [Example 86, 5-chloro-N-(1-((2-chlorobenzyl)sulfonyl)-1H-pyrrol-3-yl)picolinamide] was run?
Its EC50 is 7220 nM.

Which EC50 does the source give for Cc1cccc(Cl)c1S(=O)(=O)n1ccc(NC(=O)c2ccccn2)c1 [Example 76, N-(1-((2-chloro-6-methylphenyl)sulfonyl)-1H-pyrrol-3-yl)picolinamide] here?
The EC50 was 988 nM.

Which EC50 does the source give for O=C(Nc1ccn(S(=O)(=O)c2ccc(Cl)c(C(F)(F)F)c2)c1)c1ccccn1 [Example 102, N-(1-((4-chloro-3-(trifluoromethyl)phenyl)sulfonyl)-1H-pyrrol-3-yl)picolinamide] here?
The EC50 was 5120 nM.

How did the EC50 turn out when Cc1c(F)cccc1S(=O)(=O)n1ccc(NC(=O)c2ccccn2)c1 [Example 115, N-(1-((3-fluoro-2-methylphenyl)sulfonyl)-1H-pyrrol-3-yl)picolinamide] was run?
The EC50 was 393 nM.

For O=C(Nc1ccn(S(=O)(=O)c2ccc(Cl)cn2)c1)c1ccccn1 [Example 121, N-(1-((5-chloropyridin-2-yl)sulfonyl)-1H-pyrrol-3-yl)picolinamide], which EC50 is on record?
The EC50 was 162 nM.

Which EC50 does the source give for O=C(Nc1ccn(S(=O)(=O)c2ccc(Cl)cc2F)c1)c1ccco1 [Example 169, N-(1-((4-chloro-2-fluorophenyl)sulfonyl)-1H-pyrrol-3-yl)furan-2-carboxamide] here?
The EC50 was 4130 nM.

O=C(Nc1ccn(S(=O)(=O)c2cccc(C(F)(F)F)c2)c1)c1ccccn1 [Example 85, N-(1-((3-(trifluoromethyl)phenyl)sulfonyl)-1H-pyrrol-3-yl)picolinamide] was tested. Which EC50 did it give?
Its EC50 is 1620 nM.

How did the EC50 turn out when O=C(Nc1ccn(S(=O)(=O)c2cccnc2Cl)c1)c1ccccn1 [Example 137, N-(1-((2-chloropyridin-3-yl)sulfonyl)-1H-pyrrol-3-yl)picolinamide] was run?
Its EC50 is 3790 nM.

O=C(Nc1ccn(S(=O)(=O)c2ccccc2)c1)c1nccs1 [Example 50, N-(1-(phenylsulfonyl)-1H-pyrrol-3-yl)thiazole-2-carboxamide] was tested. Which EC50 did it give?
Its EC50 is 2680 nM.

With O=C(Nc1ccn(S(=O)(=O)Cc2ccc(F)cc2F)c1)c1nccs1 [Example 55, N-(1-((2,4-difluorobenzyl)sulfonyl)-1H-pyrrol-3-yl)thiazole-2-carboxamide] as the molecule, how does the EC50 read?
The EC50 was 1910 nM.

For O=C(Nc1ccn(S(=O)(=O)Cc2c(F)cccc2F)c1)c1ccccn1 [Example 92, N-(1-((2,6-difluorobenzyl)sulfonyl)-1H-pyrrol-3-yl)picolinamide], which EC50 is on record?
Its EC50 is 153 nM.

Cc1ccc(S(=O)(=O)n2ccc(NC(=O)c3ccccn3)c2)s1 [Example 135, N-(1-((5-methylthiophen-2-yl)sulfonyl)-1H-pyrrol-3-yl)picolinamide] was tested. Which EC50 did it give?
Its EC50 is 88.7 nM.

For O=C(Nc1ccn(S(=O)(=O)Cc2ccc(F)cc2F)c1)c1ccco1 [Example 56, N-(1-((2,4-difluorobenzyl)sulfonyl)-1H-pyrrol-3-yl)furan-2-carboxamide], which EC50 is on record?
Its EC50 is 3690 nM.

COc1ccc(S(=O)(=O)n2ccc(NC(=O)c3ccccn3)c2)cc1 [Example 129, N-(1-((4-methoxyphenyl)sulfonyl)-1H-pyrrol-3-yl)picolinamide] was tested. Which EC50 did it give?
Its EC50 is 107 nM.

For O=C(Nc1ccn(S(=O)(=O)Cc2cccc(F)c2)c1)c1nccs1 [Example 84, N-(1-((3-fluorobenzyl)sulfonyl)-1H-pyrrol-3-yl)thiazole-2-carboxamide], which EC50 is on record?
Its EC50 is 4800 nM.

Which EC50 does the source give for O=C(Nc1ccn(S(=O)(=O)c2ccc(Cl)s2)c1)c1ccccn1 [Example 131, N-(1-((5-chlorothiophen-2-yl)sulfonyl)-1H-pyrrol-3-yl)picolinamide] here?
The EC50 was 1040 nM.

With N#Cc1ccccc1S(=O)(=O)n1ccc(NC(=O)c2ccccn2)c1 [Example 79, N-(1-((2-cyanophenyl)sulfonyl)-1H-pyrrol-3-yl)picolinamide] as the molecule, how does the EC50 read?
The EC50 was 489 nM.

How did the EC50 turn out when O=C(O)c1ccc(S(=O)(=O)n2ccc(NC(=O)c3ccccn3)c2)cc1 [Example 155, 4-((3-(picolinamido)-1H-pyrrol-1-yl)sulfonyl)benzoic acid] was run?
Its EC50 is 6380 nM.

With O=C1CCc2ccc(S(=O)(=O)n3ccc(NC(=O)c4ccccn4)c3)cc2N1 [Example 152, N-(1-((2-oxo-1,2,3,4-tetrahydroquinolin-7-yl)sulfonyl)-1H-pyrrol-3-yl)picolinamide] as the molecule, how does the EC50 read?
Its EC50 is 917 nM.

How did the EC50 turn out when COc1ccc(S(=O)(=O)n2ccc(NC(=O)c3ccco3)c2)cc1 [Example 164, N-(1-((4-methoxyphenyl)sulfonyl)-1H-pyrrol-3-yl)furan-2-carboxamide] was run?
The EC50 was 701 nM.

How did the EC50 turn out when CC(c1ccc(Cl)cc1)S(=O)(=O)n1ccc(NC(=O)c2ccccn2)c1 (stereo not shown) [Example 109, N-(1-((1-(4-chlorophenyl)ethyl)sulfonyl)-1H-pyrrol-3-yl)picolinamide] was run?
The EC50 was 1890 nM.

With Cc1cc(S(=O)(=O)n2ccc(NC(=O)c3ccccn3)c2)c(Cl)cc1Cl [Example 108, N-(1-((2,4-dichloro-5-methylphenyl)sulfonyl)-1H-pyrrol-3-yl)picolinamide] as the molecule, how does the EC50 read?
The EC50 was 21100 nM.
